Test results as given in patent publication US4455419A, “2'-Modified kanamycins and production thereof” (Zaidan Hojin Biseibutsu Kagaku Kenkyu Kai, priority 1981, dated 1984).
In brackets after ≈: the same amount, converted by molar mass. Read-outs that look alike come from different tables or passages of the source.

Tests used:
Assay in all cases: Minimum inhibitory concentration, standard serial dilution method
Type in all cases: cell-based
[1] = test system: Escherichia coli JR66/W677 (A-20683); conditions: read-out: Minimum Inhibitory Concentrations
Description: (§1) For comparison purpose, the minimum inhibitory concentrations (mcg/ml) of the parent compound, kanamycin A are also shown in Table II.

Escherichia coli No. 29 = conditions: read-out: Minimum Inhibitory Concentrations
Description: as §1

[2] = test system: Klebsiella pneumoniae PCI-602; conditions: read-out: Minimum Inhibitory Concentrations
Description: as §1

Providencia morgani Kono = conditions: read-out: Minimum Inhibitory Concentrations
Description: as §1

[3] = test system: Pseudomonas aeruginosa E-2 IAM-1007; conditions: read-out: Minimum Inhibitory Concentrations
Description: as §1

[4] = test system: Pseudomonas aeruginosa IAM-1007; conditions: read-out: Minimum Inhibitory Concentrations
Description: as §1

[5] = test system: Salmonela typhimlium LT-2; conditions: 24 h, read-out: Minimum Inhibitory Concentrations
Description: as §1

[6] = test system: Serratia marcescens No. 1; conditions: read-out: Minimum Inhibitory Concentrations
Description: as §1

[7] = test system: Staphylococcus aureus Rosenbach FDA 209-OJC-1; conditions: read-out: Minimum Inhibitory Concentrations
Description: as §1

[8] = test system: Staphylococcus epidermidis 109; conditions: read-out: Minimum Inhibitory Concentrations
Description: as §1

[9] = Escherichia coli JR66/W677 (A-20683), nutrient agar, 37° C., 24 hours
[10] = Escherichia coli No. 29, nutrient agar, 37° C., 24 hours
[11] = Klebsiella pneumoniae, PCI602, 24 h
[12] = Pseudomonas aeruginosa, IAM1007, 24 h
[13] = Serratia marcescens, NO.1, 24 h
[14] = Staphylococcus aureus, FDA209, 24 h
[15] = Staphylococcus epidermidis, 109, 24 h

SMILES	MIC [1, 9] [µg/mL]	MIC (Escherichia coli No. 29; [10]) [µg/mL]	MIC ([2]; PCI602, Klebsiella pneumoniae PCI-602, nutrient agar, 37° C., 24 hours) [µg/mL]	MIC (Providencia morgani Kono; Providencia morgani Kono, nutrient agar, 37° C., 24 hours) [µg/mL]	MIC ([3]; IAM1007, Pseudomonas aeruginosa E-2 IAM-1007, nutrient agar, 37° C., 24 hours) [µg/mL]	MIC ([4]; IAM1007, Pseudomonas aeruginosa IAM-1007, nutrient agar, 37° C., 24 hours) [µg/mL]	MIC [5] [µg/mL]	MIC ([6]; Serratia marcescens No. 1, nutrient agar, 37° C., 24 hours) [µg/mL]	MIC ([7]; FDA209, Staphylococcus aureus Rosenbach FDA 209-OJC-1, nutrient agar, 37° C., 24 hours) [µg/mL]	MIC ([8]; Staphylococcus epidermidis 109, nutrient agar, 37° C., 24 hours) [µg/mL]	MIC (Escherichia coli No. 29; Escherichia coli, NO.29, 24 h) [µg/mL]	MIC [2, 11] [µg/mL]	MIC (Providencia morgani Kono; Providencia, 24 h) [µg/mL]	MIC [3, 12] [µg/mL]	MIC [4, 12] [µg/mL]	MIC [6, 13] [µg/mL]	MIC [7, 14] [µg/mL]	MIC [8, 15] [µg/mL]	MIC ([1]; Escherichia coli, 24 h) [µg/mL]
NC[C@H]1O[C@H](O[C@H]2[C@H](O)[C@@H](O[C@H]3O[C@H](CO)[C@@H](O)[C@H](N)[C@H]3O)[C@H](N)C[C@@H]2N)C[C@@H](O)[C@@H]1O [2'-Deoxykanamycin A, 2'-deoxykanamycin A]	50 (≈ 107 µM)	0.39 (≈ 0.832 µM)	0.78 (≈ 1.66 µM)	0.78 (≈ 1.66 µM)	6.25 (≈ 13.3 µM)	1.56 (≈ 3.33 µM)	0.78 (≈ 1.66 µM)	0.78 (≈ 1.66 µM)	0.05 (≈ 0.107 µM)	0.2 (≈ 0.427 µM)	–	–	–	–	–	–	–	–	–
NC[C@H]1O[C@H](O[C@H]2[C@H](O)[C@@H](O[C@H]3O[C@H](CO)[C@@H](O)[C@H](N)[C@H]3O)[C@H](N)C[C@@H]2N)[C@@H](O)[C@@H](O)[C@@H]1O [2'-Epikanamycin A, 2'-epikanamycin A]	> 100	–	–	–	–	–	6.25 (≈ 12.9 µM)	–	–	–	6.25 (≈ 12.9 µM)	6.25 (≈ 12.9 µM)	6.25 (≈ 12.9 µM)	> 100	50 (≈ 103 µM)	12.5 (≈ 25.8 µM)	0.39 (≈ 0.805 µM)	25 (≈ 51.6 µM)	–
NC[C@H]1O[C@H](O[C@H]2[C@H](O)[C@@H](O[C@H]3O[C@H](CO)[C@@H](O)[C@H](N)[C@H]3O)[C@H](N)C[C@@H]2N)[C@@H](N)[C@@H](O)[C@@H]1O [2'-Epikanamycin B, 2'-epikanamycin B]	–	–	–	–	–	–	50 (≈ 103 µM)	–	–	–	50 (≈ 103 µM)	50 (≈ 103 µM)	50 (≈ 103 µM)	> 100	> 100	100 (≈ 207 µM)	1.56 (≈ 3.23 µM)	50 (≈ 103 µM)	> 100
NC[C@H]1O[C@H](O[C@H]2[C@H](O)[C@@H](O[C@H]3O[C@H](CO)[C@@H](O)[C@H](N)[C@H]3O)[C@H](N)C[C@@H]2N)[C@H](O)[C@@H](O)[C@@H]1O [Kanamycin A, kanamycin A, reference compound]	> 100	0.78 (≈ 1.61 µM)	–	–	–	–	1.56 (≈ 3.22 µM)	–	–	–	–	1.56 (≈ 3.22 µM)	3.13 (≈ 6.46 µM)	50 (≈ 103 µM)	12.5 (≈ 25.8 µM)	3.13 (≈ 6.46 µM)	0.1 (≈ 0.206 µM)	3.13 (≈ 6.46 µM)	–
